According to US6355799B1, “Substituted benzene compounds, process for their preparation, and herbicidal and defoliant compositions containing them” (ISK Americas Incorporated, priority 1997, dated 2002):

How the values were obtained:
Type in all cases: in vivo
[1] = system: green foxtail (Setaria viridis, SETVI); test: Post-emerge test, greenhouse herbicide activity screening; settings: post-emerge, 14 days after application, rating scale 0-100
Summary of the method: (§1)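 Rating: 0–100 visual injury, 14 DAA. Application: acetone, 187 l/ha, 15–1000 g ai/ha, flat-fan track sprayer with nozzle 40–45 cm above soil or canopy. Post-emerge runs used 0.25% v/v surfactant on 2–3 leaf plants.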

[2] = system: sicklepod (Cassia obtusifolia, CASOB); test: as above; settings: post-emerge, 14 days after application, rating scale 0-100
Summary of the method: as §1

[3] = system: large crabgrass (Digitaria sanguinalis, DIGSA); test: as above; settings: post-emerge, 14 days after application, rating scale 0-100
Summary of the method: as §1

[4] = system: barnyardgrass (Echinochloa crus-galli, ECHCG); test: as above; settings: post-emerge, 14 days after application, rating scale 0-100
Summary of the method: as §1

[5] = system: redroot pigweed (Amaranthus retroflexus, AMARE); test: as above; settings: post-emerge, 14 days after application
Summary of the method: as §1

[6] = system: johnsongrass (Sorghum halepense, SORHA); test: as above; settings: post-emerge, 14 days after application, rating scale 0-100
Summary of the method: as §1

[7] = system: lambsquarters (Chenopodium album, CHEAL); test: as above; settings: post-emerge, 14 days after application, rating scale 0-100
Summary of the method: as §1

[8] = system: velvetleaf (Abutilon theophrasti, ABUTH); test: as above; settings: post-emerge, 14 days after application, rating scale 0-100
Summary of the method: as §1

[9] = system: ivyleaf morningglory (Ipomoea hederacea, IPOHE); test: as above; settings: post-emerge, 14 days after application, rating scale 0-100
Summary of the method: as §1

[10] = system: field corn (Zea mays L., var. Dekalb 535, CORN); test: Pre-emerge test, crop safety; settings: crop damage rating 0-100, 14 days after application
Summary of the method: (§2)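 Visual ratings on a 0-100 scale (0 no damage, 100 all plants dead) were taken at 14 days after treatment. Rates of 15-1000 g ai/ha in acetone, 187 l/ha, were sprayed onto soil one day after planting (pre-emerge) or onto 2-3 leaf plants with 0.25% v/v surfactant (post-emerge).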

[11] = system: upland rice (Oryza sp., var. Tebonnet, RICE); test: Pre-emerge test, crop safety; settings: crop damage rating 0-100, 14 days after application
Summary of the method: as §2

[12] = system: redroot pigweed (Amaranthus retroflexus, AMARE); test: Pre-emerge test, greenhouse herbicide activity screening; settings: phytotoxicity rating 0-100, 14 days after application
Summary of the method: as §1

[13] = system: field corn (Zea mays L., var. Dekalb 535, CORN); test: Post-emerge test, crop safety; settings: post-emerge, 14 days after application, rating scale 0-100
Summary of the method: (§3)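 Plants grown in 10 cm pots of sandy loam mix received acetone-dissolved compounds through a moving flat-fan nozzle. Doses ranged from 15 to 1000 g ai/ha. Pre-emerge pots were seeded one day earlier, post-emerge pots 8–21 days earlier. Fourteen days on, each pot was graded 0–100 for damage.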

[14] = system: upland rice (Oryza sp., var. Tebonnet, RICE); test: Post-emerge test, crop safety; settings: post-emerge, 14 days after application, rating scale 0-100
Summary of the method: as §3

[15] = system: green foxtail (Setaria viridis, SETVI); test: Pre-emerge test, greenhouse herbicide activity screening; settings: phytotoxicity rating 0-100, 14 days after application
Summary of the method: as §1

[16] = system: sicklepod (Cassia obtusifolia, CASOB); test: as above; settings: phytotoxicity rating 0-100, 14 days after application
Summary of the method: as §1

[17] = system: large crabgrass (Digitaria sanguinalis, DIGSA); test: as above; settings: phytotoxicity rating 0-100, 14 days after application
Summary of the method: as §1

[18] = system: barnyardgrass (Echinochloa crus-galli, ECHCG); test: as above; settings: phytotoxicity rating 0-100, 14 days after application
Summary of the method: as §1

[19] = system: johnsongrass (Sorghum halepense, SORHA); test: as above; settings: phytotoxicity rating 0-100, 14 days after application
Summary of the method: as §1

[20] = system: lambsquarters (Chenopodium album, CHEAL); test: as above; settings: phytotoxicity rating 0-100, 14 days after application
Summary of the method: as §1

[21] = system: velvetleaf (Abutilon theophrasti, ABUTH); test: as above; settings: phytotoxicity rating 0-100, 14 days after application
Summary of the method: as §1

[22] = system: ivyleaf morningglory (Ipomoea hederacea, IPOHE); test: as above; settings: phytotoxicity rating 0-100, 14 days after application
Summary of the method: as §1

[23] = 63 g ai/ha, rating scale 0-100 (0 no damage, 100 complete death)
[24] = 250 g ai/ha, rating scale 0-100

## Cn1c(C(F)(F)F)cc(=O)n(-c2c(F)cc(Cl)c(OCC#N)c2NC(=O)OCc2ccccc2)c1=O [4-23]
[1]; 63 g ai/ha
  phytotoxicity rating SETVI: 40
[1]; 250 g ai/ha
  phytotoxicity rating SETVI: 70
[2]; 63 g ai/ha
  phytotoxicity rating CASOB: 80
[2]; 250 g ai/ha
  phytotoxicity rating CASOB: 100
[3]; 63 g ai/ha
  phytotoxicity rating DIGSA: 10
[3]; 250 g ai/ha
  phytotoxicity rating DIGSA: 40
[4]; 63 g ai/ha
  phytotoxicity rating ECHCG: 20
[4]; 250 g ai/ha
  phytotoxicity rating ECHCG: 60
[5]; [23]
  phytotoxicity rating AMARE: 100
[5]; [24]
  phytotoxicity rating AMARE: 100
[6]; 63 g ai/ha
  phytotoxicity rating SORHA: 10
[6]; 250 g ai/ha
  phytotoxicity rating SORHA: 50
[7]; 63 g ai/ha
  phytotoxicity rating CHEAL: 80
[7]; 250 g ai/ha
  phytotoxicity rating CHEAL: 100
[8]; 63 g ai/ha
  phytotoxicity rating ABUTH: 100
[8]; 250 g ai/ha
  phytotoxicity rating ABUTH: 100
[9]; 63 g ai/ha
  phytotoxicity rating IPOHE: 100
[9]; 250 g ai/ha
  phytotoxicity rating IPOHE: 100
[10]; 63 g ai/ha
  Pre-emerge Herbicidal Activity CORN: 35
[10]; 250 g ai/ha
  Pre-emerge Herbicidal Activity CORN: 90
[11]; 63 g ai/ha
  Pre-emerge Herbicidal Activity RICE: 60
[11]; 250 g ai/ha
  Pre-emerge Herbicidal Activity RICE: 90
[12]; 63 g ai/ha
  Pre-emerge Herbicidal Activity AMARE: 100
[12]; 250 g ai/ha
  Pre-emerge Herbicidal Activity AMARE: 100
[13]; 63 g ai/ha
  phytotoxicity rating CORN (crop damage): 35
[13]; 250 g ai/ha
  phytotoxicity rating CORN (crop damage): 80
[14]; 63 g ai/ha
  phytotoxicity rating RICE (crop damage): 60
[14]; 250 g ai/ha
  phytotoxicity rating RICE (crop damage): 80
[15]; 63 g ai/ha
  Pre-emerge Herbicidal Activity SETVI: 80
[15]; 250 g ai/ha
  Pre-emerge Herbicidal Activity SETVI: 100
[16]; 63 g ai/ha
  Pre-emerge Herbicidal Activity CASOB: 80
[16]; 250 g ai/ha
  Pre-emerge Herbicidal Activity CASOB: 100
[17]; 63 g ai/ha
  Pre-emerge Herbicidal Activity DIGSA: 80
[17]; 250 g ai/ha
  Pre-emerge Herbicidal Activity DIGSA: 100
[18]; 63 g ai/ha
  Pre-emerge Herbicidal Activity ECHCG: 80
[18]; 250 g ai/ha
  Pre-emerge Herbicidal Activity ECHCG: 95
[19]; 63 g ai/ha
  Pre-emerge Herbicidal Activity SORHA: 70
[19]; 250 g ai/ha
  Pre-emerge Herbicidal Activity SORHA: 90
[20]; 63 g ai/ha
  Pre-emerge Herbicidal Activity CHEAL: 100
[20]; 250 g ai/ha
  Pre-emerge Herbicidal Activity CHEAL: 100
[21]; 63 g ai/ha
  Pre-emerge Herbicidal Activity ABUTH: 100
[21]; 250 g ai/ha
  Pre-emerge Herbicidal Activity ABUTH: 100
[22]; 63 g ai/ha
  Pre-emerge Herbicidal Activity IPOHE: 100
[22]; 250 g ai/ha
  Pre-emerge Herbicidal Activity IPOHE: 80

## COc1c(Cl)cc(F)c(-n2c(=O)cc(C(F)(F)F)n(C)c2=O)c1NC(=O)OCc1ccc(C)c(C)c1 [4-26]
[1]; 63 g ai/ha
  phytotoxicity rating SETVI: 20
[1]; 250 g ai/ha
  phytotoxicity rating SETVI: 60
[2]; 63 g ai/ha
  phytotoxicity rating CASOB: 30
[2]; 250 g ai/ha
  phytotoxicity rating CASOB: 60
[3]; 63 g ai/ha
  phytotoxicity rating DIGSA: 20
[3]; 250 g ai/ha
  phytotoxicity rating DIGSA: 50
[4]; 63 g ai/ha
  phytotoxicity rating ECHCG: 10
[4]; 250 g ai/ha
  phytotoxicity rating ECHCG: 50
[5]; [23]
  phytotoxicity rating AMARE: 100
[5]; [24]
  phytotoxicity rating AMARE: 100
[6]; 63 g ai/ha
  phytotoxicity rating SORHA: 10
[6]; 250 g ai/ha
  phytotoxicity rating SORHA: 50
[7]; 63 g ai/ha
  phytotoxicity rating CHEAL: 90
[7]; 250 g ai/ha
  phytotoxicity rating CHEAL: 100
[8]; 63 g ai/ha
  phytotoxicity rating ABUTH: 100
[8]; 250 g ai/ha
  phytotoxicity rating ABUTH: 100
[9]; 63 g ai/ha
  phytotoxicity rating IPOHE: 100
[9]; 250 g ai/ha
  phytotoxicity rating IPOHE: 100
[10]; 63 g ai/ha
  Pre-emerge Herbicidal Activity CORN: 0
[10]; 250 g ai/ha
  Pre-emerge Herbicidal Activity CORN: 0
[11]; 63 g ai/ha
  Pre-emerge Herbicidal Activity RICE: 0
[11]; 250 g ai/ha
  Pre-emerge Herbicidal Activity RICE: 45
[12]; 63 g ai/ha
  Pre-emerge Herbicidal Activity AMARE: 70
[12]; 250 g ai/ha
  Pre-emerge Herbicidal Activity AMARE: 100
[13]; 63 g ai/ha
  phytotoxicity rating CORN (crop damage): 5
[13]; 250 g ai/ha
  phytotoxicity rating CORN (crop damage): 20
[14]; 63 g ai/ha
  phytotoxicity rating RICE (crop damage): 15
[14]; 250 g ai/ha
  phytotoxicity rating RICE (crop damage): 45
[15]; 63 g ai/ha
  Pre-emerge Herbicidal Activity SETVI: 75
[15]; 250 g ai/ha
  Pre-emerge Herbicidal Activity SETVI: 95
[16]; 63 g ai/ha
  Pre-emerge Herbicidal Activity CASOB: 0
[16]; 250 g ai/ha
  Pre-emerge Herbicidal Activity CASOB: 0
[17]; 63 g ai/ha
  Pre-emerge Herbicidal Activity DIGSA: 10
[17]; 250 g ai/ha
  Pre-emerge Herbicidal Activity DIGSA: 90
[18]; 63 g ai/ha
  Pre-emerge Herbicidal Activity ECHCG: 0
[18]; 250 g ai/ha
  Pre-emerge Herbicidal Activity ECHCG: 30
[19]; 63 g ai/ha
  Pre-emerge Herbicidal Activity SORHA: 0
[19]; 250 g ai/ha
  Pre-emerge Herbicidal Activity SORHA: 20
[20]; 63 g ai/ha
  Pre-emerge Herbicidal Activity CHEAL: 100
[20]; 250 g ai/ha
  Pre-emerge Herbicidal Activity CHEAL: 100
[21]; 63 g ai/ha
  Pre-emerge Herbicidal Activity ABUTH: 80
[21]; 250 g ai/ha
  Pre-emerge Herbicidal Activity ABUTH: 100
[22]; 63 g ai/ha
  Pre-emerge Herbicidal Activity IPOHE: 0
[22]; 250 g ai/ha
  Pre-emerge Herbicidal Activity IPOHE: 10
